Reference: patent publication US5349127A, “Expression of herbicide metabolizing cytochromes P450” (priority 1992, dated 1994)

What was measured:
S. lividans pCAO200 = assay: Sulfonylurea metabolism by washed cell suspension (Examples 6-9); type: in vitro ADME, Streptomyces lividans; settings: substrate 10004
[1] = test system: S. lividans pCAO200SU1#12; assay: as above; type: in vitro ADME, Streptomyces lividans; settings: substrate 10004
[2] = test system: S. lividans transformed with pCAO400; assay: Sulfonylurea metabolism by washed cell suspension (Example 5); type: in vitro ADME, Streptomyces lividans; settings: substrate 10004 about 100 μg/ml
Description: (§1) Herbicides and their metabolites are measured by HPLC as described by Romesser et al., BBRC 140: 650-659 (1986), herein incorporated by reference, except that 0.1% H3 PO4 is used in both solvents. Chromatographic identity and quantitation of the herbicides and their resulting metabolites is determined by comparing them chromatographically with authentic standard compounds. Identity of the resulting metabolites is also confirmed by UV spectroscopy.
(§2) A 100 ml culture of S. griseolus ATCC 11796 in sporulation broth and a 50 ml culture of S. lividans transformed with pCAO400 in YEME broth were prepared and incubated for 24 hours as described. At that time, the S. griseolus culture was split into two 50 ml aliquots into two separate flasks and 25 ml of fresh sporulation broth was added to each and 9 mg of […] was added to one of these cultures to induce cytochrome P450SU1 expression. Fresh YEME broth (25 ml) was added to the S. lividans culture. After an additional 6 hours growth at 30° C., the cells in each culture were harvested as described above, washed twice with MOPS (50 mM, pH 7.2) and recentrifuged. The cell pellets were resuspended in four cell volumes of MOPS (50 mM, pH 7.2) containing 0.2% glucose and about 100 μg/ml of 10004. These cell suspensions were incubated at 30° C. with shaking and aliqouts were taken at 2 and 5.5 hours. The supernatant of each aliquot was analyzed by HPLC and the concentrations of the sulfonylurea compound 10004 and its metabolite 10005 were determined.

[3] = test system: S. lividans pCAO200SU1-FeS-B#9; assay: Sulfonylurea metabolism by washed cell suspension (Examples 6-9); type: in vitro ADME, Streptomyces lividans; settings: substrate 10004
Description: as §1, §2
S. lividans transformed respectively with pCAO200SU1-FeS-B#9, pCAO200SU#112and pCAO200 were cultured for 36 hours in 400 ml of YEME broth at 30° C. S. griseolus ATCC 11796 was similarly cultured in 400 ml of sporulation broth. Six hours before harvesting the cells, 150 ml of fresh YEME broth was added to the S. lividans cells, and the S. griseolus cells were split into two 200 ml cultures with 100 ml of fresh sporulation broth added to each. 10001 (36 mg) was added to one of the two S. griseolus cultures to induce cytochrome P450SU1. […]

[4] = test system: S. griseolus ATCC 11796, 10001 added; assay: Percent conversion of herbicides by cultures (Example 16); type: in vitro ADME, Streptomyces griseolus; settings: 3.0 mg herbicide and 3.0 mg 10001 in 25 ml broth; 24 hours
Description: (§3) Separate cultures (50 ml) inoculated with S. lividans C37, S. lividans transformed with pCAO200SU1-FeS-B#9, S. griseolus ATCC11796, S. griseolus PH2003 transformed with pIJ425, or S. ariseolus PH2003 transformed with pCS325 were cultured in sporulation broth for 18 hours at 30° C. with shaking. Each culture was then resuspended in 25 ml fresh sporulation broth and 3.0 mg herbicide added. In the case of cultures of S. griseolus ATCC11796, a second culture containing herbicide and 3.0 mg 10001 was also prepared. Each culture was reincubated for 24 hours, then an aliquot of the medium was withdrawn and analyzed by HPLC. The percent conversion of herbicide was determined.

S. griseolus ATCC 11796 = assay: as above; type: in vitro ADME, Streptomyces griseolus; settings: 3.0 mg herbicide in 25 ml broth; 24 hours
Description: as §3

[5] = test system: S. griseolus PH2003 pCS325; assay: as above; type: in vitro ADME, Streptomyces griseolus; settings: for Percent Conversion: 3.0 mg herbicide in 25 ml broth, 24 hours; for metabolism by bacteria containing constitutively expressed P450SU2: summary of Table 13
Description: as §3

[6] = test system: S. griseolus PH2003 pIJ425; assay: as above; type: in vitro ADME, Streptomyces griseolus; settings: 3.0 mg herbicide in 25 ml broth; 24 hours
Description: as §3

[7] = test system: S. lividans pCAO200SU1-FeS-B#9; assay: as above; type: in vitro ADME, Streptomyces lividans; settings: for Percent Conversion: 3.0 mg herbicide in 25 ml broth, 24 hours; for metabolism by bacteria containing constitutively expressed P450SU1: summary of Table 13
Description: as §3

S. lividans C37 = assay: as above; type: in vitro ADME, Streptomyces lividans; settings: 3.0 mg herbicide in 25 ml broth; 24 hours
Description: as §3

S. griseolus ATCC11796 = assay: Metabolism of 10015 analogs to 10014 (Example 17); type: in vitro ADME, Streptomyces griseolus
Description: Cultures of S. griseolus ATCC11796 were cultivated in sporulation-broth (50ml) at 30° C. with shaking for 17 hours. Each culture was then resuspended in 25 ml fresh sporulation broth, 3.0 mg sulfonylurea was added, and the culture reincubated for 4 days. Aliquots of the medium were then analyzed by HPLC. Formation of 10014 was measured based on similarity of retention time and UV spectrum of the test metabolite to that formed by metabolism of 10015.

[8] = biological target: T1, purified cytochrome p450SU1 (Streptomyces griseolus, UniProt P18326); assay: Rate of metabolism of 10015 to 10014 supported by FeS proteins (Example 27); type: biochemical; settings: 0.2 mM 10015, 15 min
T1 construct: Purified, native cytochromes P450SU1 and P450SU2; endogenous in cells; host or cells: sulfonylurea-induced Streptomyces griseolus cells
T1 sequence (P18326 whole entry, looked up): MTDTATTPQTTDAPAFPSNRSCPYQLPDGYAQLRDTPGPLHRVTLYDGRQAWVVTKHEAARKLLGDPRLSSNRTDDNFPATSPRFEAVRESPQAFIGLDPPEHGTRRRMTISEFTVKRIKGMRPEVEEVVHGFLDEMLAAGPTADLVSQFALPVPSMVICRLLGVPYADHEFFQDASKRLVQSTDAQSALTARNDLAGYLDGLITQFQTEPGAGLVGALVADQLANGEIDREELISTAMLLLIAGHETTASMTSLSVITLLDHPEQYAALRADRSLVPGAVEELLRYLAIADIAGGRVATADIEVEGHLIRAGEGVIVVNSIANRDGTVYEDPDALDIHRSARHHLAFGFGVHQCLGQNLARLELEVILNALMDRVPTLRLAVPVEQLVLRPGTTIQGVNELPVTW
Description: The purpose of this example was to define the combination of cytochrome p450SU1 and other proteins which results in optimal metabolism of sulfonylureas, based on conclusions from in vitro experiments. In these experiments, the rate of metabolism of 10015 to 10014, mediated by purified cytochrome p450SU1, was tested to find which FeS protein functions as the best direct electron donor.
The reaction was initiated by-the addition of NADPH to a final concentration of 0.03 mM. After 15 min the reaction was terminated by the addition of 0.25 ml H2 O:acetonitrile:H3 PO4^- (80:19:1). After filtering this mixture through a 0.2 μm filter, the amount of metabolite (10014) formed was analyzed by HPLC.

Molecule	Percent Conversion [4]	Percent Conversion (S. griseolus ATCC 11796)	Percent Conversion [5]	metabolism by bacteria containing constitutively expressed P450SU2 [5]	Percent Conversion [6]	Percent Conversion [7]	metabolism by bacteria containing constitutively expressed P450SU1 [7]	Percent Conversion (S. lividans C37)	further results
CCCCN1Cc2cccc(S(=O)(=O)NC(=O)Nc3nc(OC)cc(OC)n3)c2S1(=O)=O [compound 10004]									concentration in supernatant (S. lividans pCAO200; 2 h): 97 µM; concentration in supernatant (S. lividans pCAO200; 4 h): 92 µM; concentration in supernatant (S. lividans pCAO200; 6 h): 85 µM; concentration in supernatant ([1]; 2 h): 81 µM; concentration in supernatant ([1]; 4 h): 29 µM; concentration in supernatant ([1]; 6 h): 0 µM; concentration in supernatant ([2]; 2 h): 72 µM; concentration in supernatant ([2]; 5.5 h): 0 µM; concentration in supernatant ([3]; 2 h): 2 µM; concentration in supernatant ([3]; 4 h): 1 µM; concentration in supernatant ([3]; 6 h): 2 µM
COc1cc(OC)nc(NC(=O)NS(=O)(=O)c2cccc3c2S(=O)(=O)N(CCC(C)O)C3)n1 (stereo not drawn) [compound 10005, 2-(3-hydroxybutyl)-2,3-dihydro-N-[(4,6-dimethoxypyrimidin-2-yl)aminocarbonyl]1,2-benzisothiazole-7-sulfonamide-1,1-dioxide]									concentration in supernatant (S. lividans pCAO200; 2 h): 22 µM; concentration in supernatant (S. lividans pCAO200; 4 h): 26 µM; concentration in supernatant (S. lividans pCAO200; 6 h): 30 µM; concentration in supernatant ([1]; 2 h): 43 µM; concentration in supernatant ([1]; 4 h): 84 µM; concentration in supernatant ([1]; 6 h): 109 µM; concentration in supernatant ([2]; 2 h): 67 µM; concentration in supernatant ([2]; 5.5 h): 125 µM; concentration in supernatant ([3]; 2 h): 35 µM; concentration in supernatant ([3]; 4 h): 100 µM; concentration in supernatant ([3]; 6 h): 100 µM
CN(C)c1nc(=O)n(C2CCCCC2)c(=O)n1C [compound 10017, 3-cyclohexyl-1-methyl-6-dimethylamino-S-triazine-2,4(1H,3H)dione]	35%	1%	98%	metabolized	6%	47%	metabolized	19%	
CSc1nnc(C(C)(C)C)c(=O)n1N [compound 10018, 4-amino-6-tert-butyl-3-(methylthio)-AS-triazin-5(4H)-one]			72%	metabolized	10%	56%	metabolized	0%	
Cc1ccc(NC(=O)N(C)C)cc1Cl [compound 10019, 3-(3-chloro-p-tolyl)-1,1-dimethylurea]	80%	0%	9%		0%	35%	metabolized	0%	
CCNc1nc(Cl)nc(NC(C)(C)C#N)n1 [compound 10021, 2-[4-chloro-6-(ethylamino-1,3,5-triazin-2-yl)amino]-2-methylpropanenitrile]			93%	metabolized	7%	23%		0%	
N#Cc1cc(Br)c(O)c(Br)c1 [compound 10023, 3,5-dibromo-4-hydroxybenzonitrile]	0%	0%				0%		0%	
C=CCN1Cc2cccc(S(=O)(=O)NC(=O)Nc3nc(OC)cc(OC)n3)c2S1(=O)=O [compound 10028, N-[(4,6-dimethoxypyrimidin-2-yl)aminocarbonyl]-2,3-dihydro-2-(2-propenyl)-1,2-benzisothiazole-7-sulfonamide-1,1-dioxide]									metabolism by P450SU1 to phytotoxic 10014 (S. griseolus ATCC11796): metabolized
COc1cc(OC)nc(NC(=O)NS(=O)(=O)c2cccc3c2S(=O)(=O)N(C[Si](C)(C)C)C3)n1 [compound 10032, N-[(4,6-dimethoxypyrimidin-2-yl)aminocarbonyl]-2,3-dihydro-2-(trimethylsilylmethyl)-1,2-benzisothiazole-7-sulfonamide-1,1-dioxide]									% Conversion to 10014 (S. griseolus ATCC11796; 3.0 mg sulfonylurea in 25 ml broth, 4 days): 0%
spinach Fd: spinach ferredoxin (an FeS protein)									Rate of 10015 metabolism to 10014 [8]: 0.4 (nmol 10014)·(nmol p450)-1·(mi; Rate of 10015 metabolism to 10014 ([8]; 4 mM FeS addition, FNR 0.2 mM): 0.2 (nmol 10014)·(nmol p450)-1·(mi; Rate of 10015 metabolism to 10014 ([8]; 4 mM FeS addition, FNR 2.0 mM): 0.2 (nmol 10014)·(nmol p450)-1·(mi
